Laboratory results taken from paper PMC12251482, “Floridoside Phosphotriester Derivatives: Synthesis and Inhibition of Human Neutrophils’ Oxidative Burst” (Molecules, 2025).

Assays:
[1] = tested on: PMA-stimulated human neutrophils; assay: H2O2 generation by PMA-stimulated neutrophils, oxidation of Amplex Red; assay type: cell-based; details: PMA 160 nM, mean ± SEM; for Amplex Red: highest obtained % of inhibition / inhibition at 50 µM: at 50 µM; for inhibition at 50 µM / IC50: Homo sapiens, Neutrophil; for inhibition at 50 µM: read-out: Amplex Red: highest obtained % of inhibition
Procedure: Amplex Red is a highly sensitive and chemically stable fluorescent probe for the extracellular detection of H2O2 [82]. The methodology used previously for monitoring the modulation of the oxidative burst was adapted. In a 96-well plate, neutrophils (2 × 10^6 cells/mL) were incubated in the dark at 37 °C for 5 min with Amplex Red (25 μM), horseradish peroxidase (0.25 U/mL), and the compounds under study (10–100 μM) or DMSO (4%). Quercetin (0.3–5.0 μM) and DPI (0.01–10 μM) were used as controls. After incubation, PMA (160 nM) was added, and the fluorescence (excitation at 530 nm and emission at 590 nm) was measured in a microplate reader (Synergy HT, BioTek Instruments, Inc., Winooski, VT, USA). Obtained values correspond to the slope measured between 5 and 10 min. Effects are expressed as the percentage inhibition of Amplex Red oxidation. The results obtained represent at least three independent experiments. […] 3.4.3 Oxidation of Amplex Red
Amplex Red is a highly sensitive and chemically stable ﬂuorescent probe for the extracellular detection of H2O2 [16]. The methodology used previously for monitoring the modulation of the oxidative burst was adapted.
In a 96-well plate, neutrophils (2 x 10^6 cells/mL) were incubated in the dark at 37 °C for 5 minutes with Amplex Red (25 µM), horseradish peroxidase (0.25 U/mL) , and the compounds under study (10 - 100 µM) or DMSO (4%). Quercetin (0.3 - 5.0 µM) and DPI (0.01 - 10 µM) were used as positive controls for inhibition. After incubation, PMA (160 nM) was added, and the ﬂuorescence (excitation at 530 nm and emission at 590 nm) was measured in a microplate reader (Synergy HT, BioTek Instruments, Inc., Winooski, VT, USA). Obtained values correspond to the slope measured between 5 and 10 minutes. Eﬀects are expressed as the percentage inhibition of Amplex Red oxidation. The obtained results represent at least three independent experiments.
(§1) GraphPad Prism 6 software was used to plot the inhibition percentage versus compound concentration curves, enabling the determination of the concentration required to achieve 50% inhibition (IC50). GraphPad Prism 6 software was also used to perform all statistical analyses.
(§2) […] was estimated by applying the one-way analysis (ANOVA), followed by the Bonferroni’s multiple comparisons test. In all cases, p-values < 0.05 were considered statistically signiﬁcant. The results are expressed as mean ± standard error of the mean (SEM).

[2] = tested on: PMA-stimulated human neutrophils; assay: PMA-induced neutrophils' oxidative burst, oxidation of luminol (chemiluminescence); assay type: cell-based; details: PMA 160 nM, mean ± SEM; for Luminol: highest obtained % of inhibition / inhibition at 100 µM: at 100 µM; for inhibition at 100 µM / IC50: Homo sapiens, Neutrophil; for inhibition at 100 µM: read-out: Luminol: highest obtained % of inhibition
Procedure: Luminol is easily oxidized by reactive species produced during neutrophils’ oxidative burst, resulting in a chemiluminescent signal. The effect of the compounds under study on the modulation of neutrophil oxidative burst was determined after stimulation with PMA, a known neutrophil activator, because its effect is closely analogous to that obtained during the phagocytic process. Following a previously reported method, in a 96-well plate, neutrophils were incubated in the dark at 37 °C for 5 min with luminol (500 μM) and the tested compounds (10–100 μM) or DMSO (final concentration 4%). Quercetin, a flavonoid known for its anti-inflammatory activity (0.3–5.0 μM), and the inhibitor of NADPH oxidase, DPI (0.01–10 μM), were used as controls. After incubation, PMA (160 nM) was added, and the chemiluminescence was measured in a microplate reader (Synergy HT, BIO-TEK Instruments, Inc., Winooski, VT, USA). Kinetic readings were initiated immediately after cell stimulation. Measurements were taken at the peak of the curve. […] Effects are expressed as the inhibition percentage of luminol oxidation. The results obtained represent at least three independent experiments. […]
3.4 Evaluation of neutrophils' oxidative burst
3.4.1 Oxidation of luminol
Luminol is easily oxidized by reactive species produced during neutrophils’ oxidative burst, resulting in a chemiluminescent signal. The eﬀect of the compounds under study on the modulation of neutrophil oxidative burst was determined after stimulation with PMA, a known neutrophil activator, because its eﬀect is closely analogous to that obtained during the phagocytic process. Following a previously reported method, in a 96-well plate, neutrophils were incubated in the dark at 37 °C for 5 minutes with luminol (500 µM) and the tested compounds (10 - 100 µM) or DMSO (ﬁnal concentration 4%). Quercetin, a ﬂavonoid known for its anti-inﬂammatory activity (0.3 - 5.0 µM), and the inhibitor of NADPH oxidase, DPI (0.01 - 10 µM), were used as positive and negative controls, respectively. After incubation, PMA (160 nM) was added, and the chemiluminescence was measured in a microplate reader (Synergy HT, BIO-TEK Instruments, Inc., Winooski, VT, USA). Kinetic readings were initiated immediately after cell stimulation. Measurements were taken at the […]
peak of the curve. […] Eﬀects are expressed as the inhibition percentage of luminol oxidation. The obtained results represent at least three independent experiments.

[3] = tested on: PMA-stimulated human neutrophils; assay: HOCl generation by PMA-stimulated neutrophils, oxidation of APF; assay type: cell-based; details: PMA 160 nM, mean ± SEM; for APF: highest obtained % of inhibition / inhibition at 50 µM: at 50 µM; for inhibition at 50 µM / IC50: Homo sapiens, Neutrophil; for inhibition at 50 µM: read-out: APF: highest obtained % of inhibition
Procedure: APF is a non-fluorescent derivative of fluorescein, which is oxidized by HOCl, ONOO^−, and HO^• [87], in a concentration-dependent manner. Its selectivity was tested using the myeloperoxidase (MPO) inhibitor, 4-aminobenzoic acid hydrazide (ABAH). The addition of ABAH to human neutrophils, stimulated with PMA, decreased the APF-dependent fluorescence signal to the level of the control assay, ruling out the involvement of HO^• and ONOO^− [88]. The previously established methodology for monitoring oxidative burst modulation was adapted. In a 96-well plate, neutrophils (2 × 10^6 cells/mL) were incubated in the dark at 37 °C for 5 min with APF (2 μM) and the tested compounds (10–100 μM) or DMSO (4%). Quercetin (0.3–5.0 μM) and DPI (0.01–10 μM) were used as controls. After incubation, PMA (160 nM) was added, and the fluorescence (excitation at 495 nm and emission at 528 nm) was measured in a microplate reader (Synergy HT, BIO-TEK Instruments, Inc., Winooski, VT, USA). Kinetic readings were initiated immediately after the addition of APF. Obtained values correspond to the slope measured between 5 and 15 min. Effects are expressed as the percentage inhibition of APF oxidation. The results obtained represent at least three independent experiments.
APF is a non-ﬂuorescent derivative of ﬂuorescein, which is oxidized by HOCl, [20] ONOO-, and HO• [21] in a concentration- dependent manner. Its selectivity was tested using the myeloperoxidase (MPO) inhibitor, 4-aminobenzoic acid hydrazide (ABAH). The addition of ABAH to human neutrophils, stimulated with PMA, decreased the APF-dependent ﬂuorescence signal to the level of the control assay, ruling out the involvement of HO• and ONOO− [22]. The previously established methodology for monitoring oxidative burst modulation was adapted. In a 96-well plate, neutrophils (2 x 10^6 cells/mL) were incubated in the dark at 37 °C for 5 minutes with APF (2 µM) and the tested compounds (10 - 100 µM) or DMSO (4%). Quercetin (0.3 - 5.0 µM) and DPI (0.01 - 10 µM) were used as positive and negative controls, respectively. After incubation, PMA (160 nM) was added, and the ﬂuorescence (excitation at 495 nm and emission at 528 nm) was measured in a microplate reader (Synergy HT, BIO-TEK Instruments, Inc., Winooski, VT, USA). Kinetic readings were initiated immediately after the addition of APF. Obtained values correspond to the slope measured between 5 and 15 minutes. Eﬀects are expressed as the percentage inhibition of APF oxidation. The obtained results represent at least three independent experiments. […]
as §1, §2

RAW 264.7 macrophages = tested on: RAW 264.7 macrophages; design: method as in PMID 11292070, doi:10.1016/j.fbio.2025.105894; details: read-out: IC50 for the inhibition of •NO; cited from earlier work

## 3-Hydroxy-2-(galactopyranosyl)propyl bis(3-phenylpropyl) phosphate [Compound 1f]
[1]
  Amplex Red: highest obtained % of inhibition: <20% ^50µM
[2]
  Luminol: highest obtained % of inhibition: <20% ^100µM
[3]
  APF: highest obtained % of inhibition: <20% ^50µM

## 3-Hydroxy-2-galactopyranosylpropyl (bis(2-aminoethyl)) phosphate [Compound 1c]
[1]
  Amplex Red: highest obtained % of inhibition: <20% ^50µM
[2]
  Luminol: highest obtained % of inhibition: <20% ^100µM
[3]
  APF: highest obtained % of inhibition: 22 ± 8% ^50µM

## NCCOP(=O)(OCCN)OCC1OC(OC(CO)CO)C(O)C(O)C1O (stereo not shown) [Compound 1d]
[1]
  inhibition at 50 µM: 30 ± 9%
[2]
  inhibition at 100 µM: < 20%
[3]
  inhibition at 50 µM: 21 ± 6%

## COc1ccc(CCCOP(=O)(OCCCc2ccc(OC)c(OC)c2)OCC(CO)OC2OC(CO)C(O)C(O)C2O)cc1OC (stereo not shown) [Compound 1g, 3-Hydroxy-2-(galactopyranosyl)propyl (bis(3-(3,4-dimethoxyphenyl)propyl) phosphate]
[1]
  inhibition at 50 µM: < 20%
[2]
  inhibition at 100 µM: < 20%
[3]
  inhibition at 50 µM: < 20%

## c1ccc2c(c1)[I+]c1ccccc1-2 [DPI, diphenyleneiodonium chloride, reference compound]
[1]
  IC50: 60 ± 4 nM
[2]
  IC50: 80 ± 10 nM
[3]
  IC50: 30 ± 3 nM

## O=c1c(O)c(-c2ccc(O)c(O)c2)oc2cc(O)cc(O)c12 [Quercetin, quercetin, reference compound]
[1]
  IC50: 4100 ± 300 nM
[2]
  IC50: 1200 ± 200 nM
[3]
  IC50: 2400 ± 200 nM

## COc1ccc2c(c1)c(CC(=O)O)c(C)n2C(=O)c1ccc(Cl)cc1 [indomethacin]
RAW 264.7 macrophages
  IC50: 10100 nM
